Assay results: publication PMC2673089 (Journal of pharmaceutical sciences, 2008)
Marks after values point to notes of the source that are not given here.

Tests used:
DA uptake = conditions: read-out: DA Uptake IC50; mean ± SEM; cited from earlier work
Caco-2 monolayers [1] = experiment: Bidirectional transport and verapamil inhibition across Caco-2 monolayers; assay type: in vitro ADME; conditions: 0.1 mM, absence of verapamil, mean ± SD (n = 3)
MDCK-MDR1 monolayers [2] = experiment: Bidirectional transport and verapamil inhibition across MDCK-MDR1 monolayers; assay type: in vitro ADME; conditions: MDCK-MDR1
[3] = tested on: extracellular levels of DA in the nucleus accumbens (NAc); conditions: cited from earlier work
MDCK-MDR1 monolayers [4] = conditions: MDCK-MDR1 monolayer characterization; cited from earlier work
Caco-2 monolayers [5] = conditions: Caco-2 monolayer characterization; cited from earlier work
[6] = 0.1 mM, absence of verapamil, mean ± SD (n = 3)

For `CN1[C@@H]2CC[C@H]1C[C@@H](OC(c1ccccc1)c1ccccc1)C2` [BZT, benztropine, reference compound], which IC50 (DA uptake) is on record?
The IC50 was 403 ± 115 nM.

Which results are given for `C[N+]1(C)C2CCC1CC(OC(c1ccc(F)cc1)c1ccc(F)cc1)C2` (stereo not drawn) [JHW 025, N-(dimethyl)-3α-[(bis-4′-fluorophenyl)methoxy]tropane, reference compound]?
Papp A-B (Caco-2 monolayers [1]): <0.34 ^a × 10^−6 cm/s; Papp B-A (Caco-2 monolayers [1]): 1.8 ± 0.25 × 10^−6 cm/s; Efflux Ratio (MDCK-MDR1 monolayers [2]; 0.1 mM, Papp(B-A)/Papp(A-B)): 1.5; Papp A-B (MDCK-MDR1 monolayers [2]; [6]): 5.00 ± 0.31 × 10^−6 cm/s; Papp B-A (MDCK-MDR1 monolayers [2]; [6]): 7.39 ± 1.17 × 10^−6 cm/s; Enhancement ratio of A-B transport by verapamil (MDCK-MDR1 monolayers [2]; verapamil 200 μM): 1.2

For `COC(=O)[C@H]1[C@@H](OC(=O)c2ccccc2)C[C@@H]2CC[C@H]1N2C` [cocaine], which DA increase ([3]; 3 mg/kg i.v., similar microdialysis technique, ref Baumann et al.[41]) is on record?
The DA increase was “six-fold”.

What about the DA elevation ([3]; 5 mg/kg i.v., identical stereotaxic coordinates) of the same molecule?
The DA elevation was 10 fold.

Which “Papp of marker compounds” value (MDCK-MDR1 monolayers [4]) does the source give for `CC(C)NCC(O)COc1cccc2ccccc12` (centres unmarked) [propranolol] here?
The value was 2.433e-05 cm/s.

What about the “Papp of marker compounds” value (Caco-2 monolayers [5]) of the same molecule?
Its value is 1.334e-05 cm/s.
